{
  "source": "patent US20100093760A1",
  "about": "“METHODS FOR IDENTIFYING COMPOUNDS THAT MODULATE CELL SIGNALING AND METHODS EMPLOYING SUCH COMPOUNDS” (The General Hospital Corporation, priority 2006, published 2010)",
  "key": {"[1]": {"tested_on": "hepatic SMAD1/5/8 phosphorylation", "assay": "Iron-dextran challenge: hepatic SMAD1/5/8 phosphorylation in adult zebrafish", "type": "in vivo", "set-up": "dose or concentration left out as unconfirmed", "details": "co-injection with iron-dextran, intraperitoneal, 1 hour"}, "[2]": {"tested_on": "Activin A-mediated activation of SMAD2", "assay": "Activin A-mediated SMAD2 phosphorylation in PASMCs", "type": "cell-based, murine", "details": "Activin A 80 ng/ml", "protocol": "(§1) Wild-type and BMPR-II-deficient PASMC were isolated as previously described (Yu et al., J. Biol. Chem. 280:24443-24450, 2005), and cultured in RPMI medium (Invitrogen) supplemented with 10% FBS. C2C12 cells (American Type Culture Collection, Manassas, Va.) were cultured in DMEM supplemented with glutamine and 10% FBS. HepG2 cells and Hep3B cells (ATCC) were cultured in Minimal Essential Alpha Medium with L-glutamine (α-MEM, Invitrogen) containing 10% FBS. For studies of SMAD activation in vitro, PASMC were incubated in 0.5% FCS RPMI for 24 hours, followed by preincubation with drug compounds, noggin, or vehicle for 30 minutes, followed the addition of recombinant BMPs 2, 4, 6, or 7, or TGF-β1 or Activin A (R&D Systems, Minneapolis, Minn.) for 30 minutes.\n(§2) Cell extracts or tissues were mechanically homogenized in SDS-lysis buffer (62.5 mM Tris-HCl (pH 6.8), 2% SDS, 10% glycerol, 50 mM DTT, 0.01% bromophenol blue); separated by SDS-PAGE; immunoblotted with anti-phospho-SMAD1/5/8, anti-phospho-SMAD2 (Cell Signaling, Beverly, Mass.), or anti-α-tubulin (Upstate/Millipore, Billerica, Mass.) Abs; and visualized using ECL Plus (GE Healthcare, Piscataway, N.J.). Levels of immunoreactive proteins were quantitated by ImageQuant software on a Storm phosphorimager (GE Healthcare)."}, "[3]": {"tested_on": "BMP-mediated SMAD1/5/8 phosphorylation", "assay": "Immunoblot of BMP-induced SMAD1/5/8 phosphorylation in PASMCs", "type": "cell-based, murine", "details": "for IC50: Mus musculus, PASMC", "protocol": "as §1, §2\nThe statistical significance of compared measurements was measured using the student's two-tailed T-test or one-way ANOVA with Bonferroni correction. Hill plot analysis of Compound C/Dorsomorphin inhibition of SMAD1/5/8 phosphorylation was performed using GraFit software (Erithacus Software, Surrey, England)."}, "C2C12 cells": {"tested_on": "C2C12 cells", "assay": "BMP-induced alkaline phosphatase activity (osteogenic differentiation) in C2C12 cells", "type": "cell-based", "protocol": "C2C12 cells were seeded into 96 well plates at 2000 cells per well in DMEM supplemented with 2% FBS. Wells were treated in quadruplicate with BMP ligands and Compound C/Dorsomorphin or vehicle. Cells were harvested after 5 days in culture with 50 μl Tris buffered saline/1% Triton X-100. Lysates were added to p-nitro-phenylphosphate reagent in 96-well plates (Sigma) for 1 hour, and alkaline phosphatase activity expressed as absorbance at 405 nm. Cell viability and quantity were measured by Cell-titer Glo (Promega) and binding of nuclear dye CyQuant (Invitrogen), respectively, using replicate wells treated identically to those used for alkaline phosphatase measurements."}, "[4]": {"tested_on": "BMP-mediated SMAD1/5/8 activation in BMPR-II-deficient PASMCs", "assay": "BMP-induced SMAD1/5/8 activation in BMPR-II-deficient PASMCs", "type": "cell-based, murine", "protocol": "as §1, §2"}, "MAPK p38": {"tested_on": "MAPK p38", "assay": "Immunoblot of BMP4-mediated MAPK p38 phosphorylation in PASMCs", "type": "cell-based, murine", "details": "BMP4 20 ng/ml, 0.2-40 μM"}, "[5]": {"tested_on": "PI-3 kinase, JAK, STAT, PKA, PKC, and various other pathways", "details": "previous reports; cited from earlier work"}, "[6]": {"tested_on": "hepcidin (HAMP) and Id1 mRNA", "assay": "Hepcidin and Id1 mRNA qRT-PCR in Hep3B cells", "type": "cell-based, human", "protocol": "Quantitative RT-PCR was performed for mRNA encoding Id1 or human hepcidin (HAMP) as previously described (Babitt et al., Nat. Genet. 38:531-539, 2006; Yu et al., J. Biol. Chem. 280:24443-24450, 2005), and normalized to 18S ribosomal RNA (rRNA) or β-actin mRNA levels."}},
  "note": "“Also recorded” adds a separate entry of the source. Like-named read-outs stand apart in the source and are kept apart here.",
  "data": [
    {"smiles": "c1cc(-c2cnn3cc(-c4ccc(OCCN5CCCCC5)cc4)cnc23)ccn1", "note": "[Compound C/Dorsomorphin]", "values": [
      {"measurement": "reduction of hepatic SMAD1/5/8 phosphorylation vs iron-dextran and vehicle", "setting": "[1]", "result": "~3", "unit": "fold"},
      {"measurement": "effect on Activin A-mediated activation of SMAD2", "setting": "[2]", "result": "did not inhibit; also recorded: only modestly at concentrations ≧10 μM"},
      {"measurement": "IC50", "setting": "[3]; FIG. 6, read-out: IC50, activation of SMADs 1, 5, and 8 by BMP4", "result": 500, "unit": "nM"},
      {"measurement": "IC50", "setting": "[3]; PASMCs, Hill plot, 0.1-50 μM, read-out: functional IC50, BMP4-stimulated SMAD1/5/8 phosphorylation", "result": 470, "unit": "nM"},
      {"measurement": "level of phosphorylated SMAD1/5/8 in cells not treated with BMP", "setting": "[3]; PASMCs, 4 μM", "result": "below basal levels"},
      {"measurement": "effect on activation of SMAD1/5/8 by BMPs 2, 4, 6, and 7", "setting": "[3]; PASMCs, 4 μM, BMPs 10 ng/ml, 30 minutes", "result": "blocking; also recorded: inhibited"},
      {"measurement": "effect on BMP4-mediated SMAD1/5/8 phosphorylation", "setting": "[3]; PASMCs, BMP4 20 ng/ml, 0.2-40 μM pretreatment 30 minutes", "result": "inhibited activation of SMADs 1/5/8 dose dependently; also recorded: dose-dependent inhibition"},
      {"measurement": "inhibition of osteogenic differentiation compared with noggin", "setting": "C2C12 cells; 4 μM vs noggin 100 ng/ml", "result": "more potent than that seen with pretreatment of cells with 100 ng/ml of noggin"},
      {"measurement": "effect on BMP4- or BMP6-induced alkaline phosphatase activity (osteogenic differentiation)", "setting": "C2C12 cells; 4 μM, 5 days", "result": "completely inhibits; also recorded: almost completely abolished; also recorded: inhibited"},
      {"measurement": "effect on activation of SMAD1/5/8 by BMPs 2, 4, 6, and 7", "setting": "[4]; BMPR-II-deficient PASMCs, 4 μM, BMPs 10 ng/ml, 30 minutes", "result": "inhibited"},
      {"measurement": "effect on activity of BMPs 2, 4, 6, 7, and 9", "setting": "[4]; wild type and BMP type II receptor knockout cells", "result": "effectively inhibits"},
      {"measurement": "effect on BMP4-mediated phosphorylation of MAPK p38", "setting": "MAPK p38", "result": "without affecting MAPK p38 activation; also recorded: without inhibiting p38 activation; also recorded: did not affect; also recorded: does not exhibit significant inhibition"},
      {"measurement": "inhibition of activation of PI-3 kinase, JAK, STAT, PKA, PKC, and various other pathways", "setting": "[5]", "result": "does not exhibit significant inhibition"},
      {"measurement": "Id1 mRNA, alone or in combination with IL-6", "setting": "[6]; 4 μM, IL-6 100 ng/ml, 6 hours", "result": "blocked; also recorded: below basal levels"},
      {"measurement": "hepcidin mRNA, alone or in combination with IL-6", "setting": "[6]; 4 μM, IL-6 100 ng/ml, 6 hours", "result": "blocked; also recorded: below basal levels"},
      {"measurement": "lowering of baseline hepcidin expression", "setting": "[6]; DM 4 μM alone", "result": 27, "unit": "%"},
      {"measurement": "effect on BMP4-induced hepcidin mRNA expression", "setting": "[6]; DM 4 μM pretreatment, BMP4 20 ng/ml", "result": "completely abrogated"}
    ]}
  ]
}
